Experiments:
Mus musculus [1] = assay: Analgesic activity in ICR mouse assessed as pain threshold variation at 6.25 umol/kg, po administered as single dose measured after 90 mins by tail flick test relative to control; type: functional
Mus musculus [2] = assay: Analgesic activity in ICR mouse assessed as pain threshold variation at 6.25 umol/kg, po administered as single dose measured after 30 mins by tail flick test relative to control; type: functional
Mus musculus [3] = assay: Analgesic activity in ICR mouse assessed as pain threshold variation at 12.5 umol/kg, po administered as single dose measured after 30 mins by tail flick test relative to control; type: functional
Mus musculus [4] = assay: Analgesic activity in ICR mouse assessed as pain threshold variation at 12.5 umol/kg, po administered as single dose measured after 90 mins by tail flick test relative to control; type: functional
Mus musculus [5] = assay: Analgesic activity in ICR mouse assessed as pain threshold variation at 25 umol/kg, po administered as single dose measured after 90 mins by tail flick test relative to control; type: functional
Mus musculus [6] = assay: Analgesic activity in ICR mouse assessed as pain threshold variation at 6.25 umol/kg, po administered as single dose measured after 120 mins by tail flick test relative to control; type: functional
Mus musculus [7] = assay: Analgesic activity in ICR mouse assessed as pain threshold variation at 6.25 umol/kg, po administered as single dose measured after 60 mins by tail flick test relative to control; type: functional
Mus musculus [8] = assay: Analgesic activity in ICR mouse assessed as pain threshold variation at 25 umol/kg, po administered as single dose measured after 120 mins by tail flick test relative to control; type: functional
Mus musculus [9] = assay: Analgesic activity in ICR mouse assessed as pain threshold variation at 12.5 umol/kg, po administered as single dose measured after 180 mins by tail flick test relative to control; type: functional
Mus musculus [10] = assay: Analgesic activity in po dosed ICR mouse assessed as pain threshold variation administered as single dose measured after 30 to 180 mins by tail flick test; type: functional, organism-based
Mus musculus [11] = assay: Analgesic activity in ICR mouse assessed as pain threshold variation at 25 umol/kg, po administered as single dose measured after 60 mins by tail flick test relative to control; type: functional
Mus musculus [12] = assay: Analgesic activity in ICR mouse assessed as pain threshold variation at 25 umol/kg, po administered as single dose measured after 180 mins by tail flick test relative to control; type: functional
Mus musculus [13] = assay: Analgesic activity in ICR mouse assessed as pain threshold variation at 6.25 umol/kg, po administered as single dose measured after 180 mins by tail flick test relative to control; type: functional
Mus musculus [14] = assay: Analgesic activity in ICR mouse assessed as pain threshold variation at 25 umol/kg, po administered as single dose measured after 150 mins by tail flick test relative to control; type: functional
Mus musculus [15] = assay: Analgesic activity in ICR mouse assessed as pain threshold variation at 12.5 umol/kg, po administered as single dose measured after 60 mins by tail flick test relative to control; type: functional
Mus musculus [16] = assay: Analgesic activity in ICR mouse assessed as pain threshold variation at 12.5 umol/kg, po administered as single dose measured after 150 mins by tail flick test relative to control; type: functional
Mus musculus [17] = assay: Analgesic activity in ICR mouse assessed as pain threshold variation at 6.25 umol/kg, po administered as single dose measured after 150 mins by tail flick test relative to control; type: functional
Mus musculus [18] = assay: Analgesic activity in ICR mouse assessed as pain threshold variation at 12.5 umol/kg, po administered as single dose measured after 120 mins by tail flick test relative to control; type: functional
Mus musculus [19] = assay: Analgesic activity in ICR mouse assessed as pain threshold variation at 25 umol/kg, po administered as single dose measured after 30 mins by tail flick test relative to control; type: functional

SMILES	Activity (Mus musculus [1])	Activity (Mus musculus [2])	Activity (Mus musculus [3])	Activity (Mus musculus [4])	Activity (Mus musculus [5])	Activity (Mus musculus [6])	Activity (Mus musculus [7])	Activity (Mus musculus [8])	Activity (Mus musculus [9])	Activity (Mus musculus [10])	Activity (Mus musculus [11])	Activity (Mus musculus [12])	Activity (Mus musculus [13])	Activity (Mus musculus [14])	Activity (Mus musculus [15])	Activity (Mus musculus [16])	Activity (Mus musculus [17])	Activity (Mus musculus [18])	Activity (Mus musculus [19])
NCCCC[C@H](NC(=O)CN(c1nc(Cl)nc2[nH]cnc12)C1CC1)C(=O)O	14.48%	8.04%	16.33%	22.04%	28.84%	7.05%	16.6%	16.37%	2.99%	Dose-dependent effect	53.76%	6.07%	2.61%	11.64%	31.34%	7.39%	2.82%	9.79%	31.18%
NCCCC[C@H](NC(=O)CN(c1nc(Cl)nc2[nH]cnc12)C1CC1)C(=O)OCc1ccccc1	11.3%	9.19%	18.5%	25.42%	35.27%	9.01%	14.83%	16.79%	3.72%	Dose-dependent effect	41.16%	2.24%	3.95%	9.88%	29.98%	9.91%	4.87%	11.35%	26.13%
O=C(CN(c1nc(Cl)nc2[nH]cnc12)C1CC1)NCC(=O)OCc1ccccc1	9.93%	5.73%	11.25%	19%	27.18%	8.04%	13.19%	21.69%	5.45%	Dose-dependent effect	41.91%	8.31%	2.64%	17.99%	23.74%	6.2%	3.47%	14.62%	18.65%
CC(C)[C@H](NC(=O)CN(c1nc(Cl)nc2[nH]cnc12)C1CC1)C(=O)OCc1ccccc1	11.83%	7.69%	15.95%	23.59%	51.32%	9.26%	13.94%	27.33%	4.58%	Dose-dependent effect	55.49%	12.93%	3.22%	17.91%	26.47%	5.43%	3.07%	14.96%	33.43%
O=C(CN(c1nc(Cl)nc2[nH]cnc12)C1CC1)N[C@@H](CO)C(=O)OCc1ccccc1					34.53%			34.5%			34.17%	11.5%		27.88%					31.88%
O=C(CN(c1nc(Cl)nc2[nH]cnc12)C1CC1)N[C@@H](CC(=O)OCc1ccccc1)C(=O)OCc1ccccc1					15.58%			12.14%			22.4%	2.87%		6.68%					34.7%
O=C(CN(c1ncnc2c1ncn2C1CCCCO1)C1CC1)N[C@@H](Cc1cnc[nH]1)C(=O)OCc1ccccc1 (some centres undefined)					14.45%			10.16%			36.43%	4.38%		5.31%					24.98%
O=C(O)[C@@H]1CCCN1C(=O)CN(c1nc(Cl)nc2[nH]cnc12)C1CC1					25.99%			23.61%			34.94%	6.67%		7.29%					31.47%
O=C(O)CC[C@H](NC(=O)CN(c1nc(Cl)nc2[nH]cnc12)C1CC1)C(=O)O					44.7%			30.08%			33.25%	10.05%		29.46%					26.81%
O=C(CN(c1nc(Cl)nc2[nH]cnc12)C1CC1)N[C@@H](Cc1c[nH]c2ccccc12)C(=O)OCc1ccccc1					40.71%			21.51%			42.24%	7.78%		10.71%					30.67%
CSCC[C@H](NC(=O)CN(c1nc(Cl)nc2[nH]cnc12)C1CC1)C(=O)OCc1ccccc1					44.55%			31.55%			30.76%	10.66%		17.64%					22.22%
C[C@@H](O)[C@H](NC(=O)CN(c1nc(Cl)nc2[nH]cnc12)C1CC1)C(=O)OCc1ccccc1					29.88%			30.7%			29.7%	6.29%		12.76%					21.86%
N=C(N)NCCC[C@H](NC(=O)CN(c1ncnc2c1ncn2C1CCCCO1)C1CC1)C(=O)OCc1ccccc1 (some centres undefined)					61.58%			38.16%			52.35%	7.97%		19.6%					34.27%
O=C(CN(c1nc(Cl)nc2[nH]cnc12)C1CC1)N[C@@H](Cc1cnc[nH]1)C(=O)O					16.07%			10.66%			27.68%	3.39%		4.42%					31.71%
CC[C@H](C)[C@H](NC(=O)CN(c1ncnc2c1ncn2C1CCCCO1)C1CC1)C(=O)OCc1ccccc1 (some centres undefined)					22.57%			20.42%			27.35%	9.15%		16.43%					25.56%
CC(C)[C@H](NC(=O)CN(c1ncnc2c1ncn2C1CCCCO1)C1CC1)C(=O)OCc1ccccc1 (some centres undefined)					30.14%			25.79%			34.85%	5.65%		21.08%					21.83%
C[C@@H](O)[C@H](NC(=O)CN(c1nc(Cl)nc2[nH]cnc12)C1CC1)C(=O)O					35.87%			37.59%			30.07%	4.69%		24.02%					18.59%
CC(C)[C@H](NC(=O)CN(c1nc(Cl)nc2[nH]cnc12)C1CC1)C(=O)O					30.28%			17.06%			38.79%	3.04%		7.86%					31.15%
C[C@H](NC(=O)CN(c1nc(Cl)nc2[nH]cnc12)C1CC1)C(=O)OCc1ccccc1					44.16%			36.13%			64.29%	15.09%		23%					41.23%
CSCC[C@H](NC(=O)CN(c1nc(Cl)nc2[nH]cnc12)C1CC1)C(=O)O					13.99%			5.67%			22.75%	3.4%		4.14%					20.37%
O=C(CN(c1nc(Cl)nc2[nH]cnc12)C1CC1)N[C@@H](Cc1ccccc1)C(=O)OCc1ccccc1					27.14%			20.4%			38.92%	5.15%		10.73%					39.38%
O=C(CN(c1ncnc2c1ncn2C1CCCCO1)C1CC1)N[C@@H](CO)C(=O)OCc1ccccc1 (some centres undefined)					32.17%			29.2%			46.71%	12.85%		18.32%					27.77%
